According to the NIST ThermoML archive (doi:10.1021/acs.jced.7b00372):
Values joined by “and” are separate entries in the source; they are usually repeats but may differ in a detail not shown here. Identical values can stand only once. Numbers after ± are expanded uncertainties. Values belong to the compound of their own block, whether it stands above or below them.

How the values were obtained:
[1] = Liquid, Ebulliometric method (Recirculating still)
[2] = refractive index (Na D-line) (dimensionless); settings: 93 kPa, Liquid, Standard Abbe refractometry
[3] = refractive index (Na D-line) (dimensionless); xn = mol fraction of the nth substance listed; settings: 293.15 K, 93 kPa, Liquid, Standard Abbe refractometry

Structure (SMILES): Cc1ccccc1C [1,2-dimethylbenzene]
vapor or sublimation pressure ([1]; 414.41 K): 93.13 ± 0.96 kPa
refractive index ([2]; 293.15 K): 1.5048 ± 0.0004
refractive index ([2]; 298.15 K): 1.5022 ± 0.0004

Structure (SMILES): Cc1ccccc1C [1,2-dimethylbenzene] + COC(=O)OC
refractive index ([3]; x1 = 0.045): 1.377 ± 0.0005
refractive index ([3]; x1 = 0.1564): 1.3961 ± 0.0005
refractive index ([3]; x1 = 0.1622): 1.3969 ± 0.0005
refractive index ([3]; x1 = 0.2752): 1.4149 ± 0.0005
refractive index ([3]; x1 = 0.36): 1.4272 ± 0.0005
refractive index ([3]; x1 = 0.4516): 1.4397 ± 0.0005
refractive index ([3]; x1 = 0.5655): 1.4556 ± 0.0005
refractive index ([3]; x1 = 0.603): 1.4601 ± 0.0005
refractive index ([3]; x1 = 0.7134): 1.4734 ± 0.0005
refractive index ([3]; x1 = 0.7602): 1.4795 ± 0.0005
refractive index ([3]; x1 = 0.8813): 1.493 ± 0.0005
refractive index ([3]; x1 = 0.9276): 1.4973 ± 0.0005
refractive index ([3]; x1 = 1): 1.5048 ± 0.0004

Structure (SMILES): Cc1cccc(C)c1 [1,3-dimethylbenzene]
vapor or sublimation pressure ([1]; 409.13 K): 93.13 ± 0.96 kPa
refractive index ([2]; 293.15 K): 1.497 ± 0.0004
refractive index ([2]; 298.15 K): 1.4943 ± 0.0004

Structure (SMILES): Cc1cccc(C)c1 [1,3-dimethylbenzene] + COC(=O)OC
refractive index ([3]; x1 = 0.0467): 1.3769 ± 0.0005
refractive index ([3]; x1 = 0.0871): 1.3836 ± 0.0005
refractive index ([3]; x1 = 0.1737): 1.3973 ± 0.0005
refractive index ([3]; x1 = 0.2042): 1.4021 ± 0.0005
refractive index ([3]; x1 = 0.2593): 1.4101 ± 0.0005
refractive index ([3]; x1 = 0.3033): 1.4167 ± 0.0005
refractive index ([3]; x1 = 0.3719): 1.4262 ± 0.0005
refractive index ([3]; x1 = 0.4455): 1.4359 ± 0.0005
refractive index ([3]; x1 = 0.4709): 1.439 ± 0.0005
refractive index ([3]; x1 = 0.5421): 1.4481 ± 0.0005
refractive index ([3]; x1 = 0.6549): 1.4612 ± 0.0005
refractive index ([3]; x1 = 0.7672): 1.4738 ± 0.0005
refractive index ([3]; x1 = 0.8662): 1.4839 ± 0.0005
refractive index ([3]; x1 = 0.94): 1.4913 ± 0.0005
refractive index ([3]; x1 = 1): 1.497 ± 0.0004

Structure (SMILES): Cc1ccc(C)cc1 [1,4-dimethylbenzene]
vapor or sublimation pressure ([1]; 408.37 K): 93.13 ± 0.96 kPa
refractive index ([2]; 293.15 K): 1.4956 ± 0.0004
refractive index ([2]; 298.15 K): 1.4929 ± 0.0004

Structure (SMILES): Cc1ccc(C)cc1 [1,4-dimethylbenzene] + COC(=O)OC
refractive index ([3]; x1 = 0.0368): 1.3752 ± 0.0005
refractive index ([3]; x1 = 0.0866): 1.3835 ± 0.0005
refractive index ([3]; x1 = 0.157): 1.3946 ± 0.0005
refractive index ([3]; x1 = 0.2639): 1.4106 ± 0.0005
refractive index ([3]; x1 = 0.3598): 1.4241 ± 0.0005
refractive index ([3]; x1 = 0.4244): 1.4326 ± 0.0005
refractive index ([3]; x1 = 0.5293): 1.4457 ± 0.0005
refractive index ([3]; x1 = 0.6397): 1.4586 ± 0.0005
refractive index ([3]; x1 = 0.7655): 1.4724 ± 0.0005
refractive index ([3]; x1 = 0.8832): 1.4848 ± 0.0005
refractive index ([3]; x1 = 0.938): 1.4898 ± 0.0005
refractive index ([3]; x1 = 1): 1.4956 ± 0.0004

Structure (SMILES): COC(=O)OC [dimethyl carbonate]
vapor or sublimation pressure ([1]; 360.73 K): 93.13 ± 0.96 kPa
refractive index ([2]; 293.15 K): 1.3687 ± 0.0004 and 1.3688 ± 0.0004
refractive index ([2]; 298.15 K): 1.3664 ± 0.0004

Structure (SMILES): COC(=O)OC [dimethyl carbonate] + CCc1ccccc1
refractive index ([3]; x2 = 0): 1.3688 ± 0.0004

Structure (SMILES): COC(=O)OC [dimethyl carbonate] + Cc1ccc(C)cc1
refractive index ([3]; x2 = 0): 1.3687 ± 0.0004

Structure (SMILES): COC(=O)OC [dimethyl carbonate] + Cc1cccc(C)c1
refractive index ([3]; x2 = 0): 1.3688 ± 0.0004

Structure (SMILES): COC(=O)OC [dimethyl carbonate] + Cc1ccccc1C
refractive index ([3]; x2 = 0): 1.3688 ± 0.0004

vapor or sublimation pressure ([1]; 406.23 K): 93.13 ± 0.96 kPa
refractive index ([2]; 293.15 K): 1.4956 ± 0.0004
refractive index ([2]; 298.15 K): 1.493 ± 0.0004
Structure (SMILES): CCc1ccccc1 [ethylbenzene]

refractive index ([3]; x1 = 0.0462): 1.3767 ± 0.0005
refractive index ([3]; x1 = 0.089): 1.3836 ± 0.0005
refractive index ([3]; x1 = 0.1753): 1.397 ± 0.0005
refractive index ([3]; x1 = 0.2701): 1.4109 ± 0.0005
refractive index ([3]; x1 = 0.3564): 1.4232 ± 0.0005
refractive index ([3]; x1 = 0.4359): 1.4335 ± 0.0006
refractive index ([3]; x1 = 0.4448): 1.4352 ± 0.0005
refractive index ([3]; x1 = 0.468): 1.4382 ± 0.0005
refractive index ([3]; x1 = 0.5157): 1.4441 ± 0.0005
refractive index ([3]; x1 = 0.5825): 1.4527 ± 0.0005
refractive index ([3]; x1 = 0.6639): 1.4617 ± 0.0005
refractive index ([3]; x1 = 0.7377): 1.4702 ± 0.0005
refractive index ([3]; x1 = 0.852): 1.4815 ± 0.0005
refractive index ([3]; x1 = 0.8827): 1.4847 ± 0.0005
refractive index ([3]; x1 = 0.9124): 1.4873 ± 0.0005
refractive index ([3]; x1 = 0.9395): 1.49 ± 0.0005
refractive index ([3]; x1 = 1): 1.4956 ± 0.0004
Structure (SMILES): CCc1ccccc1 [ethylbenzene] + COC(=O)OC
